Peptide text beside a SMILES is read from it.
Tests used:
injured brain [1] = conditions: mouse, in vivo, iv; cited from earlier work
From the text: We have previously identified a tetrapeptide, CAQK, that accumulates in the ECM of the injured brain. […] We reasoned that knowing the target molecule CAQK binds to would likely give hints of the possible nature of such an activity. Previous work has shown that CAQK binds to a chondroitin sulfate proteoglycan (CSPG)-rich protein complex, the expression of which is elevated following an inju ... || Given the CAQK accumulation in the injured brain and binding to TnC in injured ECM, and the functional activities observed with other homing peptides, it seemed possible that CAQK might affect the course of TBI. To prepare for functional testing of CAQK, we performed CAQK half-life analyses using a mouse model of CCI. […] Initial clearance from the circulation through glomerular filtration is expected for a small peptide, explaining the short half-life. A small per ...

[2] = CAQK plasma clearance in rats; assay type: in vivo, rat
Experimental: Figure EV2 CAQK plasma clearance in rats. (A) CAQK was injected daily i.v. in healthy adult Sprague-Dawley rats at a 10 mg/kg dose for 7 days. Blood was collected at different time points at Day 1 and Day 7, and plasma was analyzed by LC/MS to analyze CAQK. Plasma concentration of CAQK was plotted. N = 3 per time point. Plasma clearance data were also used to calculate pharmacokinetic parameters in (B). (C) FP measurement of CAQK binding to BSA. FAM-CAQK (20 nM) was incubated with BSA at the indicated concentration for 1 h at 37 °C. n = 3.
(§1) CAQK (12.5 mg/kg) was injected i.v. into mice with CCI at 4 h post-injury. Blood was collected from these mice at different time points, and plasma was processed and analyzed by LC/MS after a reduction and alkylation step under reducing conditions to capture total peptide (free peptide and peptide bound to plasma proteins by disulfide formation). Plasma concentration was plotted using WinNonlin. Similarly, for analysis in rats, CAQK (10 mg/kg) was injected i.v. into healthy Sprague-Dawley rats once daily for 7 days. Blood was collected at different time points at Day 1 and Day, 7 and plasma was analyzed by LC/MS to analyze CAQK. Plasma concentration of CAQK was plotted. N = 3 per time point.

in vivo = conditions: mouse, iv, 12.5 mg/kg
Experimental: (§2) Figure 2 Pharmacokinetic analysis of CAQK. (A) Mice with CCI received i.v. bolus of CAQK (12.5 mg/kg) at 4 h after CCI. Blood was collected at different time points, and plasma was analyzed by LC/MS. Plasma concentration of CAQK was plotted using WinNonlin. N = 3 per time point. (B) Plasma clearance data were used to calculate pharmacokinetic parameters using a two-compartment analysis. (C) CAQK accumulation was analyzed in brain homogenates from injured (ipsilateral) and uninjured (contralateral) sides at different time points after i.v. injection and plotted as ng/g of brain tissue. N = 3/group. Data were expressed as mean ± SEM. Differences were analyzed using an unpaired t-test. […] vs contralateral side. […] It is not in the table of panel B, so it is not attached as a condition.
as §1

injured brain [3] = conditions: mouse, in vivo
Experimental: as §2
as §1, with “Similarly, for analysis in rats, CAQK (10 mg/kg) was injected i.v. into healthy Sprague-Dawley rats once daily for 7 days.” left out, “Plasma concentration of CAQK was plotted. N = 3 per time point.” left out

Safety study in CCI mice = assay type: in vivo, mouse; conditions: for ALP / ALT / BUN / GGT / TBIL: CCI mice, blood after two weeks, n = 5; for ALP / ALT / BUN: mean ± SD
Experimental: Male C57BL/6 mice (n = 5 per group) with CCI injury were intravenously administered daily with control PBS or with various concentrations (1, 5, and 25 mg/kg) of the CAQK peptide. After 2 weeks, blood was collected from the mice and analyzed for liver and kidney toxicity. Tests performed for liver function (ALP: alkaline phosphatase, ALT: alanine aminotransferase, TBIL total bilirubin, GGT G-glutamyl transferase) and kidney function (BUN: blood urea nitrogen). Results expressed as mean ± SD. For a more detailed safety analysis, Sprague-Dawley rats were randomized to four dose groups. CAQK or vehicle (0.9% sodium chloride injection, USP) was administered once daily by i.v. administration to male and female rats at 0 (vehicle),10, 100, or 300 mg/kg/day (Groups 1–4, respectively) for 7 consecutive days. All animals were euthanized and necropsied after blood sample collection for clinical pathology on Day 8. All animals in Groups 1–4 were evaluated for clinical observations, body weights, and clinical pathology (hematology, coagulation, and serum chemistry), gross necropsy observations and major organ weights. […]
Appendix Table S2. Safety study in CCI mice. C57BL/6 mice (n = 5 per group) with CCI injury were intravenously injecteddaily for 7 days with vehicle control (PBS)or with the shown concentration of the CAQK peptide. After two weeks, blood was collected from the mice and analyzed for liver and kidney toxicity. Tests performed for liver function:ALP:
Alkaline Phosphatase, ALT: Alanine Aminotransferase, TBIL-total bilirubin, GGT -G-glutamyl transferase,and for kidney function:BUN: Blood urea nitrogen. Results

- half-life after single injection versus daily injections over a week ([2]; healthy Sprague-Dawley rats, 10 mg/kg i.v. daily for 7 days, Day 1 and Day 7): remained the same
- pK profile after 7-day repeat dosing ([2]; repeat IV dosing, 7 days): unaltered
- AUC(0-inf) (in vivo): 27800 ng·h/mL
- AUC(0-t) (in vivo): 27400 ng·h/mL
- C0 (in vivo): 45100 ng/mL
- CL2 (in vivo): 13 mL/min/kg
- MRT (in vivo): 4.2 h
- T1/2, initial rapid clearance from the blood (in vivo): 9 min
- T1/2, second elimination phase (in vivo): 4.1 h
- V1 (in vivo): 0.28 L/kg
- V2 (in vivo): 1.6 L/kg
- Vd (in vivo): 1.9 L/kg
- clearance (in vivo): 7.5 mL/min/kg
- half-life (in vivo): 4.2 h
- k10 (in vivo): 1.6 h⁻¹
- k12 (in vivo): 2.8 h⁻¹
- k21 (in vivo): 0.48 h⁻¹
- t1/2Alpha (in vivo): 9 min
Compound: C[C@H](NC(=O)[C@@H](N)CS)C(=O)N[C@@H](CCC(N)=O)C(=O)N[C@@H](CCCCN)C(N)=O [CAQK, cysteine-alanine-glutamine-lysine] (H-CAQK-NH2)
- accumulation in other organs (injured brain [1]): No other organs showed peptide accumulation except the kidneys
- estimated half-life in the brain (injured brain [3]): about 5.8 h
- accumulation in the injured side of the brain versus the contralateral side (injured brain [3]; iv): over eightfold
- ALP (Safety study in CCI mice; 1 mg/kg i.v. daily for 7 days): 45 ± 5.3 U/L
- ALT (Safety study in CCI mice; 1 mg/kg i.v. daily for 7 days): 24.3 ± 6.8 U/L
- BUN (Safety study in CCI mice; 1 mg/kg i.v. daily for 7 days): 21.3 ± 3.5 mg /bL
- GGT (Safety study in CCI mice; 1 mg/kg i.v. daily for 7 days): < 5 U/L
- TBIL (Safety study in CCI mice; 1 mg/kg i.v. daily for 7 days): 0.3 mg/dL
- ALP (Safety study in CCI mice; 5 mg/kg i.v. daily for 7 days): 47.4 ± 8.2 U/L
- ALT (Safety study in CCI mice; 5 mg/kg i.v. daily for 7 days): 23.4 ± 4.9 U/L
- BUN (Safety study in CCI mice; 5 mg/kg i.v. daily for 7 days): 22.2 ± 1 mg /bL
- GGT (Safety study in CCI mice; 5 mg/kg i.v. daily for 7 days): < 5 U/L
- TBIL (Safety study in CCI mice; 5 mg/kg i.v. daily for 7 days): 0.3 mg/dL
- ALP (Safety study in CCI mice; 25 mg/kg i.v. daily for 7 days): 42.6 ± 7.6 U/L
- ALT (Safety study in CCI mice; 25 mg/kg i.v. daily for 7 days): 34.8 ± 13.2 U/L
- BUN (Safety study in CCI mice; 25 mg/kg i.v. daily for 7 days): 24.8 ± 2.05 mg /bL
- GGT (Safety study in CCI mice; 25 mg/kg i.v. daily for 7 days): < 5 U/L
- TBIL (Safety study in CCI mice; 25 mg/kg i.v. daily for 7 days): 0.3 mg/dL
- effects on body weight, organ weight, or clinical pathology (Safety study in CCI mice; TBI mice, daily i.v. doses (1, 5, and 25 mg/kg)): no effects
